Consider 27 molecules from US20020026053A1, “Novel 3-(substituted) -2- indolinones compounds and use thereof as inhibitors of protein kinase activity” (priority 1997, published 2002).

Test [1] has as its system FLK-1 receptor. The experiment in a line: FLK-1 Assay (cellular/catalytic ELISA, VEGF-stimulated phosphotyrosine). More on the design: concentration or dose not given beside the values. The test is classed as cell-based. Put shortly:
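Receptor phosphotyrosine ELISA: Flk-1-expressing NIH3T3 C7#3 cells, starved overnight in 0.1% FBS medium, received compound (1:200 final dilution, 0.5% DMSO) for 2 h at 37 °C, then VEGF. Anti-FLK-1-captured receptor was probed with anti-phosphotyrosine UB40 and peroxidase/ABTS read-out, relative to cells without compound.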

Test [2] relates to PDGF-R. The experiment in a line: PDGF-R Assay (cellular ELISA, U1242 cells). More on the design: concentration or dose not given beside the values. In kind it is cell-based. Put shortly:
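Cellular ELISA for receptor autophosphorylation: after 2 hr test-compound treatment of serum-free U1242 cells at 37°C, ligand is added for 5–10 min, cells are lysed (HNTG) and receptor captured by specific antibody. Anti-phosphotyrosine plus secondary antibody with ABTS colour read at 410/630 nm, compared with compound-free control cells.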

Take `CNS(=O)(=O)c1ccc2c(c1)C(=Cc1ccc(Cl)cc1Cl)C(=O)N2` [10735/D10]: the “Flk Kinase % Inhibition (P.110)” value in test [1] is 15.1%. The “PDGF Kinase % Inhibition (P.119)” value in test [2] worked out at 3.3%.
`CNS(=O)(=O)c1ccc2c(c1)C(=Cc1ccc(-c3ccccc3)cc1)C(=O)N2` [10735/D11]: the “Flk Kinase % Inhibition (P.110)” value in test [1] stood at 25.1%. Also, in test [2], the “PDGF Kinase % Inhibition (P.119)” value came to 0.5%.
Taken in the same sequence, the figures for `Cc1ccccc1C=C1C(=O)Nc2ccc(S(=O)(=O)Nc3ccc(C(F)(F)F)cc3)cc21` [10735/E02] were −2.0% and 14.7%.
For `O=C1Nc2ccc(S(=O)(=O)Nc3ccc(C(F)(F)F)cc3)cc2C1=Cc1ccc(F)c(F)c1` [10735/E03] the same measures were 5.1% and 16.0%.
Taken in the same sequence, the figures for `O=C1Nc2ccc(S(=O)(=O)Nc3ccc(C(F)(F)F)cc3)cc2C1=Cc1cc(F)cc(F)c1` [10735/E04] were 12.2% and 91.6%.
For `O=C1Nc2ccc(S(=O)(=O)Nc3ccc(C(F)(F)F)cc3)cc2C1=Cc1cccc(C(F)(F)F)c1` [10735/E05], in test [1], the “Flk Kinase % Inhibition (P.110)” value is 14.7%. Also, the “PDGF Kinase % Inhibition (P.119)” value in test [2] was 47.8%.
Consider `O=C1Nc2ccc(S(=O)(=O)Nc3ccc(C(F)(F)F)cc3)cc2C1=Cc1cc(C(F)(F)F)cc(C(F)(F)F)c1` [10735/E06], for which, in test [1], the “Flk Kinase % Inhibition (P.110)” value came out at 23.8%. Further, the “PDGF Kinase % Inhibition (P.119)” value in test [2] was 32.3%.
For `N#Cc1ccccc1C=C1C(=O)Nc2ccc(S(=O)(=O)Nc3ccc(C(F)(F)F)cc3)cc21` [10735/E07] the same measures were 16.1% and 57.1%.
Take `O=C1Nc2ccc(S(=O)(=O)Nc3ccc(C(F)(F)F)cc3)cc2C1=Cc1c(F)cccc1F` [10735/E08]: in test [1], the “Flk Kinase % Inhibition (P.110)” value was found to be 14.4%. Also, the “PDGF Kinase % Inhibition (P.119)” value in test [2] is recorded as 25.4%.
For the molecule `O=C1Nc2ccc(S(=O)(=O)Nc3ccc(C(F)(F)F)cc3)cc2C1=Cc1cccc2ccccc12` [10735/E09], the “Flk Kinase % Inhibition (P.110)” value in test [1] turned out to be 29.6%. In addition, the “PDGF Kinase % Inhibition (P.119)” value in test [2] worked out at 37.1%.
For `O=C1Nc2ccc(S(=O)(=O)Nc3ccc(C(F)(F)F)cc3)cc2C1=Cc1ccc(Cl)cc1Cl` [10735/E10] the same measures were 10.2% and 27.1%.
Taken in the same sequence, the figures for `O=C1Nc2ccc(S(=O)(=O)Nc3ccc(C(F)(F)F)cc3)cc2C1=Cc1ccc(-c2ccccc2)cc1` [10735/E11] were 21.9% and 11.9%.
As to `Cc1ccccc1C=C1C(=O)Nc2ccc(S(=O)(=O)N3CCOCC3)cc21` [10735/F02], the “Flk Kinase % Inhibition (P.110)” value in test [1] was found to be 2.1%. In test [2], the “PDGF Kinase % Inhibition (P.119)” value came out at 6.0%.
Taken in the same sequence, the figures for `O=C1Nc2ccc(S(=O)(=O)N3CCOCC3)cc2C1=Cc1ccc(F)c(F)c1` [10735/F03] were 11.0% and 7.8%.
Taken in the same sequence, the figures for `O=C1Nc2ccc(S(=O)(=O)N3CCOCC3)cc2C1=Cc1cc(F)cc(F)c1` [10735/F04] were 16.4% and 40.5%.
For `O=C1Nc2ccc(S(=O)(=O)N3CCOCC3)cc2C1=Cc1cccc(C(F)(F)F)c1` [10735/F05], the “Flk Kinase % Inhibition (P.110)” value in test [1] is 30.2%. Besides, the “PDGF Kinase % Inhibition (P.119)” value in test [2] is reported as 37.1%.
Take `O=C1Nc2ccc(S(=O)(=O)N3CCOCC3)cc2C1=Cc1cc(C(F)(F)F)cc(C(F)(F)F)c1` [10735/F06]: the “Flk Kinase % Inhibition (P.110)” value in test [1] is listed as 16.7%. For the same molecule, the “PDGF Kinase % Inhibition (P.119)” value in test [2] was 20.9%.
For `N#Cc1ccccc1C=C1C(=O)Nc2ccc(S(=O)(=O)N3CCOCC3)cc21` [10735/F07] the same measures were 34.0% and 19.2%.
For `O=C1Nc2ccc(S(=O)(=O)N3CCOCC3)cc2C1=Cc1c(F)cccc1F` [10735/F08] the same measures were 10.7% and 13.3%.
For `O=C1Nc2ccc(S(=O)(=O)N3CCOCC3)cc2C1=Cc1cccc2ccccc12` [10735/F09] the same measures were 40.2% and 19.8%.
Consider `O=C1Nc2ccc(S(=O)(=O)N3CCOCC3)cc2C1=Cc1ccc(Cl)cc1Cl` [10735/F10], for which, in test [1], the “Flk Kinase % Inhibition (P.110)” value was found to be 40.0%. In addition, the “PDGF Kinase % Inhibition (P.119)” value in test [2] is 13.3%.
For `O=C1Nc2ccc(S(=O)(=O)N3CCOCC3)cc2C1=Cc1ccc(-c2ccccc2)cc1` [10735/F11] the same measures were 34.6% and 4.0%.
Taken in the same sequence, the figures for `Cc1ccccc1C=C1C(=O)Nc2ccc(CCCl)cc21` [10735/G02] were 5.1% and 7.1%.
With `O=C1Nc2ccc(CCCl)cc2C1=Cc1ccc(F)c(F)c1` [10735/G03], in test [1], the “Flk Kinase % Inhibition (P.110)” value was found to be 6.8%. For the same molecule, the “PDGF Kinase % Inhibition (P.119)” value in test [2] is listed as 6.4%.
Taken in the same sequence, the figures for `O=C1Nc2ccc(CCCl)cc2C1=Cc1cc(F)cc(F)c1` [10735/G04] were 15.6% and 11.6%.
In the case of `O=C1Nc2ccc(CCCl)cc2C1=Cc1cccc(C(F)(F)F)c1` [10735/G05], the “Flk Kinase % Inhibition (P.110)” value in test [1] is 8.8%. Besides, the “PDGF Kinase % Inhibition (P.119)” value in test [2] was 13.6%.
Regarding `O=C1Nc2ccc(CCCl)cc2C1=Cc1cc(C(F)(F)F)cc(C(F)(F)F)c1` [10735/G06], the “Flk Kinase % Inhibition (P.110)” value in test [1] is 18.5%. Also, the “PDGF Kinase % Inhibition (P.119)” value in test [2] amounted to 12.9%.
